Read-outs that look alike come from different tables or passages of the source.
What was measured:
[1] = system: diploid parental strain BY4743; settings: YPD, 30° C., inoculum OD600 0.01, average +/- SD
Method: The inoculum OD600 was 0.01. The OD600 of each culture was measured after 24 hours incubation on a roller drum at 30° C. Triplicate cultures of each strain were tested. The average and standard deviation of the 24 hour growth yield measurements in each isobutanol concentration are given in Table 5.
The inoculum OD600 was 0.01. The OD600 of each culture was measured after 23 hours incubation on a roller drum at 30° C. Triplicate cultures of each strain were tested.

[2] = system: homozygous diploid strain containing a PDR5 deletion mutation (strain #32409, S04); test: Growth yield (OD600) of homozygous diploid PDR5 deletion strain in YPD medium with butanol; assay type: cell-based, Saccharomyces cerevisiae; settings: for OD600 after 23 hours incubation with 1-butanol / OD600 after 24 hours incubation with isobutanol: diploid PDR5 mutant, YPD, 30° C., inoculum OD600 0.01, average +/- SD; for growth yield of strain with the PDR5 deletion compared to BY4743: diploid
[3] = system: haploid strain containing a PDR5 deletion mutation (strain #2409); test: Growth yield (OD600) of haploid PDR5 deletion strain in YPD medium with isobutanol; assay type: cell-based, Saccharomyces cerevisiae; settings: for OD600 after 24 hours incubation with isobutanol: haploid PDR5 mutant, YPD, 30° C., inoculum OD600 0.01, average +/- SD; for growth yield of strain with the PDR5 deletion compared to BY4741: haploid, 24 hours
Method: (§1) A haploid strain of Saccharomyces cerevisiae containing a PDR5 deletion mutation (strain #2409) was obtained from Open Biosystems (Huntsville, Ala.) The deletion strain was made as part of the Saccharomyces Genome Deletion Project described in Winzeler al. (Science, 285:901-906, (1999)). […] The inoculum OD600 was 0.01. […] Duplicate cultures of each strain were tested.

parental strain BY4741 = test: Growth yield (OD600) of haploid parental strain in YPD medium with isobutanol; assay type: cell-based, Saccharomyces cerevisiae; settings: 30° C., inoculum OD600 0.01, average +/- SD
Method: as §1

CCCCO [1-Butanol, 1-butanol]
OD600 after 23 hours incubation with 1-butanol ([1]; 0.625 % w/v 1-butanol): 2.38 +/− 0.25
OD600 after 23 hours incubation with 1-butanol ([1]; 0.75 % w/v 1-butanol): 0.30 +/− 0.03
OD600 after 23 hours incubation with 1-butanol ([1]; 0.875 % w/v 1-butanol): 0.22 +/− 0.01
OD600 after 23 hours incubation with 1-butanol ([2]; 0.625 % w/v 1-butanol): 3.27 +/− 0.23
OD600 after 23 hours incubation with 1-butanol ([2]; 0.75 % w/v 1-butanol): 0.40 +/− 0.02
OD600 after 23 hours incubation with 1-butanol ([2]; 0.875 % w/v 1-butanol): 0.27 +/− 0.01
growth yield of strain with the PDR5 deletion compared to BY4743 ([2]; 0.625% w/v 1-butanol, 23 hours): 1.4 fold
growth yield of strain with the PDR5 deletion compared to BY4743 ([2]; 0.75% w/v 1-butanol, 23 hours): 1.3 fold
growth yield of strain with the PDR5 deletion compared to BY4743 ([2]; 0.875% w/v 1-butanol, 23 hours): 1.2 fold

CC(C)CO [Isobutanol, isobutanol]
OD600 after 24 hours incubation with isobutanol ([1]; 0.25 % w/v isobutanol): 7.36 +/− 0.04
OD600 after 24 hours incubation with isobutanol ([1]; 0.5 % w/v isobutanol): 6.62 +/− 0.24
OD600 after 24 hours incubation with isobutanol ([1]; 0.75 % w/v isobutanol): 1.84 +/− 0.36
OD600 after 24 hours incubation with isobutanol ([1]; 0.825 % w/v isobutanol): 0.19 +/− 0.03
OD600 after 24 hours incubation with isobutanol ([1]; 1 % w/v isobutanol): 0.08 +/− 0.01
OD600 after 24 hours incubation with isobutanol ([3]; 0.75 % w/v isobutanol): 4.71 +/− 0.53
OD600 after 24 hours incubation with isobutanol ([3]; 0.875 % w/v isobutanol): 2.45 +/− 0.42
OD600 after 24 hours incubation with isobutanol ([3]; 1 % w/v isobutanol): 0.76 +/− 0.13
growth yield of strain with the PDR5 deletion compared to BY4741 ([3]; 0.75% w/v isobutanol): 1.8 fold
growth yield of strain with the PDR5 deletion compared to BY4741 ([3]; 0.825% w/v isobutanol): 3.5 fold
growth yield of strain with the PDR5 deletion compared to BY4741 ([3]; 1% w/v isobutanol): 8 fold
OD600 after 24 hours incubation with isobutanol ([2]; 0.25 % w/v isobutanol): 7.51 +/− 0.11
OD600 after 24 hours incubation with isobutanol ([2]; 0.5 % w/v isobutanol): 7.17 +/− 0.12
OD600 after 24 hours incubation with isobutanol ([2]; 0.75 % w/v isobutanol): 4.91 +/− 0.29
OD600 after 24 hours incubation with isobutanol ([2]; 0.825 % w/v isobutanol): 1.67 +/− 0.13
OD600 after 24 hours incubation with isobutanol ([2]; 1 % w/v isobutanol): 0.16 +/− 0.01
growth yield of strain with the PDR5 deletion compared to BY4743 ([2]; 0.75% w/v isobutanol, 24 hours): 2.7 fold
growth yield of strain with the PDR5 deletion compared to BY4743 ([2]; 0.825% w/v isobutanol, 24 hours): 8.8 fold
OD600 after 24 hours incubation with isobutanol (parental strain BY4741; 0.75 % w/v isobutanol): 2.68 +/− 0.07
OD600 after 24 hours incubation with isobutanol (parental strain BY4741; 0.875 % w/v isobutanol): 0.692 +/− 0.04
OD600 after 24 hours incubation with isobutanol (parental strain BY4741; 1 % w/v isobutanol): 0.09 +/− 0.02
